These results are taken from US20260118345A1, “METHOD OF EVALUATING INTERCELLULAR INTERACTIONS IN NEUROINFLAMMATION” (FUJIFILM Corporation, priority 2023, published 2026).

Common to all, as to assay type: cell-based, human
One experiment concerns STAT1. Briefly: STAT1 localization after LPS stimulation, two-cell-type co-culture of nerve and astrocytes. The conditions noted are these: co-culture without microglia, all time points.
Experiment [1] concerns NF-κB. Description: NF-κB localization after LPS stimulation, two-cell-type co-culture of nerve and astrocytes. Conditions: co-culture without microglia, all time points.
Experiment [2] deals with NF-κB. Description: NF-κB localization after LPS stimulation, three-cell-type co-culture containing about 0.11% microglia. The conditions noted are these: proportion of microglia about 0.11%. On the procedure: The amount of cells required for the activated microglia to affect other cells was examined. Two-dimensional three-cell-type co-cultures of astrocytes, neurons, and microglia in which the proportion of the microglia was about 11%, 1.1%, and 0.11% were produced by the same method as in <1> of Test Example 1. In addition, the cells were subjected to LPS stimulation and fixed by the same method as in <1> of Test Example 1. Furthermore, the localization of NF-κB was evaluated by the same method as in <1> of Test Example 1.

Experiment [3] has as its system two-cell-type co-culture of neurons and astrocytes. Description: Neural activity by calcium imaging (BPM), two-dimensional two-cell-type co-culture of neurons and astrocytes. The conditions noted are these: 24 hours after stimulation (TNF-α 7.5 ng/mL or LPS 100 ng/mL). On the procedure: Matrigel basement membrane matrix (Corning, 356234) diluted 120-fold with DMEM/F12 (Life technologies, 11320-033) was added to a 96-well plate at 65 μL/well and allowed to stand at 4° C. After 24 hours, the culture medium was replaced with a progenitor cell culture medium and used. Astrocyte precursor cells (XCell Science, XCS-AP-001-1V) were seeded in a 96-well plate at a density of 6×10^4 cells/well, cultured under the conditions of 37° C. and 5% CO2, after culture medium was replaced with the differentiation induction culture medium, further cultured for 5 days to differentiate into astrocytes. […] After centrifugation, the supernatant was removed, the cells were suspended in 1 mL of the co-culture medium, and the number of cells was counted. […] In addition, at 24 hours after the stimulation with LPS or TNF-α, the neural activity was evaluated by calcium imaging. […] After incubating for 1 hour under conditions of 37° C. and 5% CO2, the solution was replaced with a warmed (37° C.) recording solution, and the fluorescence was measured for 10 minutes with FDSS (registered trademark)/μcell (Hamamatsu Photonics K. K., C13299). The neural activity was evaluated by quantifying the number of peaks of calcium oscillation using Wave Checker Software (Hamamatsu Photonics K. K.).

Turning to lipopolysaccharide [LPS], the “nuclear translocation of STAT1” value in the experiment with STAT1 is on record as “not observed at any time”. In addition, the “nuclear translocation of NF-κB” value with NF-κB [1] is reported as “not observed at any time”; with NF-κB [2] (1 hour after the LPS treatment), “only some cells”; in the experiment on NF-κB [2] (3 hours and 6 hours after the LPS treatment), “many cells”. Besides, the “BPM (the number of peaks of calcium oscillation per minute) as compared with the control” value in experiment [3] is recorded as “no change”.
